Laboratory results published in patent US20120258938A1, “Enzymatic Production or Chemical Synthesis and Uses for 5,7-Dienes and UVB Conversion Products Thereof” (priority 2008, published 2012).

Legend:
Col1A1 mRNA = assay: Real time RT PCR Col1A1 mRNA, TGF-b1 stimulated skin fibroblasts; type: cell-based; conditions: human skin fibroblasts
Description: Additional studies using human skin fibroblasts were performed employing a type I collagen specific ELISA Chondrex, and real time RT PCR to quantitate type I collagen protein and Col1A1 mRNA expression in culture of human fibroblast stimulated by TGF-b1 in the presence and absence of 17,20S(OH)2pD3 and/or 20(OH)D3. These studies confirmed that Type I collagen protein production that was induced by TGF-b1 and that Col1A1 mRNA that was induced by TGF-b1 were suppressed by these analogues (FIGS. 44A-44B).

CYP27A1 [1] = assay: Real-time RT PCR CYP27A1 mRNA, normal epidermal keratinocytes; type: cell-based, human; conditions: 10^−8 M, 24 h
Description: (§1) RNA was extracted using an Absolutely RNA RT-PCR Miniprep Kit (Stratagene, La Jolla, Calif.). Real time PCR and reverse transcription products were purchased from Applied Biosystems, Foster City, Calif. Reverse transcription was performed using Taqman® Reverse Transcription Reagents. The following PCR products were used: cytokeratin 14: Hs00265033_m1, involucrin: Hs00846307_s1, CYP27A1: Hs00168003_ml, CYP27B1: Hs00168017_ml, 18SrRNA: Hs99999901_s1. The reaction was performed with Taqman® Universal PCR Master Mix; data were collected on an ABI Prism 7700 and analyzed on Sequence Detector 1.9.1. Specific gene amounts were related to 18SrRNA by comparative CT method.

involucrin [2] = assay: Involucrin protein expression in HaCaT (flow cytometry, microscopy); type: cell-based, human; conditions: 10^−8 M, 24 h, flow cytometry
involucrin [3] = assay: Real-time RT PCR involucrin mRNA, normal human epidermal keratinocytes; type: cell-based; conditions: 10^−8 M, 6 h
Description: as §1

CYP24 promoter = assay: CYP24-Luc reporter in normal epidermal keratinocytes; type: cell-based, human; conditions: 24 h
Excerpt: The CYP24-Luc construct was a generous gift from Dr Tai Cheng (Boston University Medical Campus, Core Lab Director). It was originally developed by Vaisanen et al. (27). The details of the pLuc construct have been described previously (28-29). Normal epidermal keratinocytes were transfected using Lipofectamine Plus (Invitrogen, Carlsbad, Calif.) in Epilife medium with firefly luciferase reporter gene plasmid and with phRL-TK (expresses Renilla luciferase and serves as normalization control; Promega, Madison, Wis.). After transfection, cells were incubated for 24 hours in EpiLife medium with HKGS. Cells were then transferred to fresh media containing the compounds to be tested or vehicle (ethanol) and incubated for 24 hours. The firefly luciferase and Renilla luciferase signals were recorded with a TD-20/20 luminometer (Turner Designs, Sunnyvale, Calif.); background luminescence was subtracted and the resulting promoter-specific firefly signal was divided by the Renilla signal (proportional to the number of transfected cells). The values obtained were divided by the mean of control (untreated) cells.

CYP27B1 = assay: Real-time RT PCR CYP27B1 mRNA, normal epidermal keratinocytes; type: cell-based, human; conditions: 10^−8 M, 1 h
Description: as §1

HaCaT keratinocytes [4] = assay: Colony forming (clonogenicity) assay in HaCaT keratinocytes; type: cell-based, human; conditions: 10^−8 M, 10 days
Description: HaCaT and human adult epidermal keratinocytes were cultured and DNA synthesis experiments were performed as described previously (26). Cells were plated in 6-well plates at a density of 20 cells/cm^2 in DMEM (Cellgro, Herndon Va.) containing 5% charcoal-treated fetal bovine serum (Hyclone, Logan, Utah), 1% antibiotic solution (PSA, Sigma, St. Louis, […].) and vehicle or secosteroids. Cells were incubated in 37° C. for 10 days with media being changed every 72 hr. Cells were fixed with 4% paraformaldehyde in PBS overnight, stained with 0.5% crystal violet in PBS for 15 min, rinsed and air-dried. The number and size of the colonies were measured using an ARTEK counter 880 (Dynex Technologies Inc., Chantilly, Va.). Colony forming units were calculated as follows: number of colonies (size>0.5 mm) was divided by the number of cells plated and multiplied by 100.

rat CYP24 = biological target: T1, rat CYP24 (Rattus norvegicus, UniProt Q09128); assay: Metabolism by rat CYP24 in phospholipid vesicles
T1 sequence (Q09128 36-514): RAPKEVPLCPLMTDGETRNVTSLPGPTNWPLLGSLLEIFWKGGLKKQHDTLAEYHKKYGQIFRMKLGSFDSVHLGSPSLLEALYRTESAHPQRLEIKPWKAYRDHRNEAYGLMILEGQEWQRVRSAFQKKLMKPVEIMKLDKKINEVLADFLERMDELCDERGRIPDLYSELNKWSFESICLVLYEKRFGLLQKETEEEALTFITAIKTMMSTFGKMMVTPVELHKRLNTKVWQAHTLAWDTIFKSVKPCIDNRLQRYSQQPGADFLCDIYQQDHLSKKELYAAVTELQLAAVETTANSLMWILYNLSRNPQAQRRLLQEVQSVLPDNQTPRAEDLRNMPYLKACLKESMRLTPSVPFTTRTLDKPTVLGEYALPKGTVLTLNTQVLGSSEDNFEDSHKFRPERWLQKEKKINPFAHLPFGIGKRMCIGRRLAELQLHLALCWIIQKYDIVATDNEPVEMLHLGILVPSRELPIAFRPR
Description: Samples (typically 0.25-1.0 mL) were incubated at 37° C., with shaking, then reactions terminated by the addition of 2.5 mL ice-cold dichloromethane and vortexing. After phase separation aided by centrifugation, the lower organic phase was retained and the upper aqueous phase was extracted twice more with 2.5 mL aliquots of dichloromethane. The dichloromethane was removed under nitrogen and the residual sample dissolved in solvent for HPLC analysis.
(§2) To test enzymatic metabolism of 20S(OH)D3 and 20R(OH)D3, the substrates were incorporated into phospholipid vesicles with the ratio of substrate to phospholipid being 0.025 mol/mol phospholipid. Vesicles were incubated with 2 μM bovine CYP11A1 or 0.06 μM human CYP27B1 for up to 10 min. To test enzymatic metabolism of 20(OH)D3 in CYP24, the substrate was incorporated into phospholipids vesicles with 0.15-0.5 μM CYP24. To test enzymatic metabolism of 20(OH)D3 in CYP27A1, purified CYP27A1 was preincubated with the vesicles for 6 min at 37° C. Adrenodoxin was added last to initiate the reaction. For kinetic experiments, the incubations were typically 0.5 mL and were carried out over the initial linear period of the reaction (10 min for vitamin D3 and cholesterol and 30 min for 20(OH)D3).

HaCaT keratinocytes [5] = assay: Forward and side scatter (cell size, granularity) of HaCaT keratinocytes; type: cell-based, human; conditions: HaCaT; 20-hydroxycholecalciferol at 0.1 nM
Description: The FL-1 signal (collected from 10,000 events in side scatter/forward scatter window after debris exclusion) was recorded. Forward (relative to cell size) and side (relative to cell granularity) scatter histograms were generated and mean signal intensity was recorded. FL-1 signal values are presented as dMFI (difference between mean fluorescence intensity of sample stained with specific and isotype control antibody). Scatter signal values are presented as MSI (mean signal intensity). Signal intensities were analyzed with Cell Quest (BD Biosciences, San Diego, Calif.) and graphical representations of the FL-1 signal were prepared with WinMdi 2.8 (shareware from Joseph Trotter, The Scripps Research Institute, San Diego, Calif.).

cytochrome P450scc = biological target: T2, cytochrome P450scc (Bos taurus, UniProt P00189); assay: Metabolism by cytochrome P450scc in cyclodextrin; conditions: substrate in 0.45% cyclodextrin
T2 sequence (P00189 40-520): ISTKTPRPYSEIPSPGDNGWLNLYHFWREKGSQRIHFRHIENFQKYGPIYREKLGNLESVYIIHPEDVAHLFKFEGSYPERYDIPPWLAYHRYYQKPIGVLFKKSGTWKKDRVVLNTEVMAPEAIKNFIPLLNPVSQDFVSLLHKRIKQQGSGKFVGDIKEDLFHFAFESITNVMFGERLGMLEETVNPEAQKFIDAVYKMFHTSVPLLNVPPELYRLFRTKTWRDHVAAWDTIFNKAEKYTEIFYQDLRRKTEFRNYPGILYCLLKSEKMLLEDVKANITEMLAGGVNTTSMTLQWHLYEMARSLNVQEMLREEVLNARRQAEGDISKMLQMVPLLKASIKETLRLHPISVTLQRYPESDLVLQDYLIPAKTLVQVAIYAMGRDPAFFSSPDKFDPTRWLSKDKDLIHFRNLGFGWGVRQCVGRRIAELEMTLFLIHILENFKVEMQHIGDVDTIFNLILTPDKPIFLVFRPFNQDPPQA
Description: Adrenodoxin was expressed in Escherichia coli and purified as described before (41). […] Metabolites were analysed using a Perkin Elmer HPLC equipped with a C18 column (Brownlee Aquapore, 22 cm×4.6 mm, particle size 7 μm).

CYP27A1 [6] = biological target: T3, CYP27A1 (Homo sapiens, UniProt Q02318); assay: Metabolism by CYP27A1 (cyclodextrin or phospholipid vesicles); conditions: cyclodextrin
T3 sequence (Q02318 34-531): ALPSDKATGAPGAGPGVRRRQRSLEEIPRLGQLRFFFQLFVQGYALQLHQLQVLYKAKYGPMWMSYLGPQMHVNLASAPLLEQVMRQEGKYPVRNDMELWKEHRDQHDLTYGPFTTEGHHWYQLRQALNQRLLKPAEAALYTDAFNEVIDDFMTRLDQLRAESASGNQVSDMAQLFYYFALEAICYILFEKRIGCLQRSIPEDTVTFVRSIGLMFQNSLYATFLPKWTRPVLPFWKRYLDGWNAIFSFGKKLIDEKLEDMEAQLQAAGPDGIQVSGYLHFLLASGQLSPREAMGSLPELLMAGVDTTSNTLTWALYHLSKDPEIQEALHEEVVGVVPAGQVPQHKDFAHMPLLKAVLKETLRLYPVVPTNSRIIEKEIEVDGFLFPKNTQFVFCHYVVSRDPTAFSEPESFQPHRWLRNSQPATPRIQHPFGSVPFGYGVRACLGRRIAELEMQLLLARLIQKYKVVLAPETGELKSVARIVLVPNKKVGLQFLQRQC
Description: as §2
Kinetic characterization of the metabolism of 20(OH)D3 by CYP27A1 was carried out with substrate dissolved in either cyclodextrin or phospholipid vesicle. Vitamin D3 and 20(OH)D3 were incubated with 0.4 μM CYP27A1 and 1 μM CYP27A1, respectively, for 10 and 30 min. The products were analyzed by reverse phase HPLC. The hyperbolic curves were fitted using the equation v/[E]=(kcat—[S])/(Km+[S]) where v is reaction velocity, [E] is the CYP27A1 concentration, and [S] the substrate concentration.

Structure (SMILES): C=C1CCC(O)CC1=CC=C1CCCC2(C)C1CCC2(O)C(C)O [17,20Rdi(OH)pD, (5Z,7E)-(20R)-9,10-secopregna-5,7,10(19)-triene-3β,17α,20-triol]
- TGF-b1 induced Col1A1 mRNA (Col1A1 mRNA): reduce TGF-β1 induced Col1A1 mRNA

Structure (SMILES): C=C1CC[C@H](O)C/C1=C/C=C1\CCC[C@]2(C)[C@@H]([C@H](C)CCCC(C)(C)O)CC[C@@H]12 [25-hydroxycholecalciferol, (5Z,7E)-9,10-secocholesta-5,7,10(19)-triene-3β,25-diol, reference compound]
- inhibition of CYP27A1 expression (CYP27A1 [1]): ~1.9 fold
- increase in the expression of involucrin (involucrin [2]): negligible
- stimulation of involucrin mRNA (involucrin [3]): ~2.1 fold
- stimulation of transcriptional activity of the CYP24 promoter (CYP24 promoter): ~12 fold
- increase of CYP27B1 expression (CYP27B1): ~1.3 fold
- inhibition of colony formation (HaCaT keratinocytes [4]): no significant effect
- Km (rat CYP24): 0.0080±0.0016 mol substrate/mol phospholipid
- kcat (rat CYP24; phospholipid vesicles): 52.6±2.9 mol/min/mol CYP24
- kcat higher than that for 1,25(OH)2D3 (rat CYP24; phospholipid vesicles): 3.8 fold
- forward scatter, mean signal intensity (MSI) (HaCaT keratinocytes [5]): 254±0.06

Structure (SMILES): C=C1CC[C@H](O)C/C1=C/C=C1\CCC[C@]2(C)[C@@H]([C@H](C)CCCC(C)C)CC[C@@H]12 [cholecalciferol, (5Z,7E)-9,10-secocholesta-5,7,10(19)-triene-3β-ol, reference compound]
- kcat (cytochrome P450scc): 19.7±0.9 mol/min P450scc
- kcat (CYP27A1 [6]): 0.0283 ± 0.00233 s⁻¹
